One substance from patent publication US6652890B2, “Tea catechins as cancer specific proliferation inhibitors” (Purdue Research Foundation, priority 1999, dated 2003) can be followed below.

pIC50: −log10 of the molar value. “Also recorded” adds a separate entry of the source. Where two headings read alike, the source gives them in different places.

The target in assay [1] is T1, NADH oxidase of plasma membranes from MCF-10A human mammary epithelial (non-cancer) cells (Homo sapiens, UniProt Q8TC92).
T1 construct: endogenous in cells; host or cells: MCF-10A plasma membrane vesicles
T1 sequence (Q8TC92 1-643): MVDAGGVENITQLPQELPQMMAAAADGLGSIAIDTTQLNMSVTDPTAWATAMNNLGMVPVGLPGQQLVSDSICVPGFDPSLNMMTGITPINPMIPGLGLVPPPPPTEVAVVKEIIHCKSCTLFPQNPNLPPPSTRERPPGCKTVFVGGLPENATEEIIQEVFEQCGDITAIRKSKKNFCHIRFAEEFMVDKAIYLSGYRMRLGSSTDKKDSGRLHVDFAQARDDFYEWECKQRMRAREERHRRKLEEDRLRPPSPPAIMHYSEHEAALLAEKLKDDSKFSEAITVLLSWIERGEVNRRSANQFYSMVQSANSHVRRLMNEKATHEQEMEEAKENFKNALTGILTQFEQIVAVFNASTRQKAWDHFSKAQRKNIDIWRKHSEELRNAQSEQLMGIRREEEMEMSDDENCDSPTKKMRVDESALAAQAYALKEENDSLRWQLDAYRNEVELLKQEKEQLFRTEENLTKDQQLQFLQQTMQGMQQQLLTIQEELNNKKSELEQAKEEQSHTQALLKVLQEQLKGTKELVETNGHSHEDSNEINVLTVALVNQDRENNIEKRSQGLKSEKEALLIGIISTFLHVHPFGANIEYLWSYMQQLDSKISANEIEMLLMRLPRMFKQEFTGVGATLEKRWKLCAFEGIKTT
Description: NADH oxidase activity of isolated plasma membrane vesicles. It is filed as biochemical. Particulars: EGCg dose-response, FIG. 2A. The method, then:
Cultured cells were collected by centrifugation for 6-15 min at 175-1000×g. The cell pellets were resuspended in 0.2 mM EDTA in 1 mM NaHCO3 in an approximate ratio of 1 ml per 10^8 cells and incubated on ice for 10-30 min to swell the cells. […] To estimate breakage, the cells were monitored by light microscopy before and after homogenization. At least 90% cell breakage without breakage of nuclei was achieved routinely.
The homogenates were centrifuged for 10 min at 175×g to remove unbroken cells and nuclei and the supernatant was centrifuged a second time at 1.4×10^6 g·min (e.g., 1 h at 23,500×g) to prepare a plasma membrane-enriched microsome fraction. The supernatant was discarded and the pellets were resuspended in 0.2 M potassium phosphate buffer in a ratio of ˜1 ml per pellet from 5×10^8 cells. […] The purity of the plasma membrane was determined to be >90% by electron microscope morphometry. […]
NADH oxidase activity was determined as the disappearance of NADH measured at 340 nm in a reaction mixture containing 25 mM Tris-Mes buffer (pH 7.2), 1 mM KCN to inhibit low levels of mitochondrial oxidase activity, and […] at 37° C. with stirring. Activity was measured using a Hitachi U3210 or SLM Aminco DW2000 spectrophotometer with continuous recording over two intervals of 5 min each. […]

Assay [2] deals with HeLa (human cervical carcinoma) cells. Description: Effect on intact cells in culture (growth, morphology, DAPI). The class given is cell-based. To be noted: for pIC50: read-out: EGCg concentration for 50% growth arrest, FIG. 8. How it is done: HeLa (ATCC CCL2) cells were grown in 175 cm^2 flasks in Minimal Essential Medium (Gibco), pH 7.4, at 37° C. with 10% bovine calf serum (heat-inactivated), plus 50 mg/l gentamycin sulfate (Sigma). […] The coverslips were rinsed and the cells fixed in methanol followed by addition of fluorescent dye 4′,6-diamidino-2-phenylindole (DAPI) as described (Wolvetang et al., 1994, FEBS Lett. 339:40-44). Cells were observed and photographed at a primary magnification of 400×. HeLa (ATCC CCL2) cells were grown in 150 cm^2 flasks in Minimal Essential Medium (Gibco), pH 7.4, at 37° C. with 10% bovine calf serum (heat-inactivated), plus 50 mg/l gentamicin sulfate (Sigma).

Where [3] appears, read: 10^−6 M EGCg twice daily for 96 h.

On to (−) - epigallocatechin gallate [EGCg], for which, in assay [1], the “Effect on NADH oxidase activity” value is listed as “without effect”. Further, the “Fate of treated cells” value in assay [2] (10 μM EGCg added at t=0, 96 h, FIG. 4) was “did not recover and died; also recorded: stopped growing and died”. For the same substance, in assay [2] (setting [3]), the “Reduction of cell diameter” value is listed as “about 25%”, the “Reduction of cell number” value is “about 25%” and the “Reduction of cell volume” value stood at 50%. Also, the “Response of the cell line” value in assay [2] (10^−6 M EGCg, 72 h) was “no response”. Besides, the “Condensed chromatin (DAPI staining)” value in assay [2] (10 or 50 μM EGCg, 96 h, FIG. 5) was “characteristic of apoptosis”. In addition, in assay [2] (EGCg), the “Growth of HeLa cells” value is “almost completely inhibited”. In addition, the pIC50 in assay [2] (72 h, in the absence of EC) was 5.00. In addition, the pIC50 in assay [2] (72 h, in the presence of 10^−4 M EC) is 7.00.
